{
  "source": "patent US5622498A",
  "about": "“Method for the treatment of periodontal disease by sustained delivery of a therapeutic agent to the periodontal pocket, composition of matter therefor and apparatus for the administration thereof” (priority 1993, dated 1997)",
  "key": {"[1]": {"system": "organisms associated with periodontal disease", "settings": "cited from earlier work"}, "[2]": {"settings": "dog, in vivo", "excerpt": "Pharmacokinetic investigation of minocycline-containing periodontal microcapsules was undertaken to produce a dosage form that could be administered to the periodontal pocket and that would yield minocycline concentrations exceeding the MIC's (0.05-1.56 mcg/ml) for organisms associated with periodontal disease for extended periods of time. Therefore, a study to evaluate four different minocycline periodontal formulations relative to determining minocycline levels in crevicular fluid was conducted in a dog model. The study utilized beagle dogs with surgically created \"chronic\" intrabony periodontal defects. […]\nIn sequence, the defects were created as follows: First, the lower fourth premolars were extracted, sockets were allowed to heal for one month, and dogs received a full mouth scaling and tooth cleaning. […] Dogs were monitored for an additional four weeks.\nFor evaluation of crevicular levels of minocycline, dogs were placed under general anesthesia, and the various formulations were administered into the periodontal pockets associated with the created defects. […] The strip was then removed, and the relative amount of fluid was determined by a Periotron 6000 instrument. […]\nSamples of gingival fluid are collected as described above, and analyzed. […]"}, "[3]": {"system": "gram-positive and gram-negative organisms", "settings": "cited from earlier work"}},
  "data": [
    {"smiles": "CN(C)c1ccc(O)c2c1C[C@H]1C[C@H]3[C@H](N(C)C)C(O)=C(C(N)=O)C(=O)[C@@]3(O)C(O)=C1C2=O", "note": "[minocycline, 7-dimethylamino-6-deoxy-6-demethyltetracycline]", "values": [
      {"measurement": "MIC", "setting": "[1]", "result": "0.05 to 1.56", "unit": "µg/mL"},
      {"measurement": "period for which minimum inhibitory concentrations (MIC's) can be achieved", "setting": "[2]", "result": "up to two"},
      {"measurement": "antibacterial activity", "setting": "[3]", "result": "activity against a wide range of gram-positive and gram-negative organisms"}
    ]}
  ]
}
